Publication PMC4724233 (European journal of medicinal chemistry, 2015)

Legend:
GST-hCAR-LBD = molecular target: T1, GST-hCAR-LBD (Homo sapiens, UniProt Q14994); test: CAR-mediated fluorescent PGC1α coactivator recruitment/repression assay; details: ratio of IC50 values; for fold increase of IC50 (less potent) relative to lead chemical 11 / fold more potent than lead compound CINPA1 (11): comparator 11 (IC50 687 nM)
T1 sequence (Q14994 109-348 isoform Q14994-2 limits assumed): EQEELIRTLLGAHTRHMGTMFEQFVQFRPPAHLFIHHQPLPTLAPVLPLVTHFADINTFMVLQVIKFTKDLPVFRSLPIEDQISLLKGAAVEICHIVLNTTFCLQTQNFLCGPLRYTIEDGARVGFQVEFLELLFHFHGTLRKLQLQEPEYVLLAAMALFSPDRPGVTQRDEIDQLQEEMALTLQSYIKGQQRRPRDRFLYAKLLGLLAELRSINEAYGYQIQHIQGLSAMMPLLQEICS

hCAR = details: cultured human hepatocytes; cited from earlier work
PXR [1] = details: only at very high concentrations, 20 or 40 μM; cited from earlier work
CAR = details: only at very high concentrations, 20 or 40 μM; cited from earlier work
PXR [2] = details: cited from earlier work

SMILES | fold increase of IC50 (less potent) relative to lead chemical 11 (GST-hCAR-LBD) | fold more potent than lead compound CINPA1 (11) (GST-hCAR-LBD) | further results
CCN(CC)CC(=O)N1c2ccccc2CCc2ccc(Nc3nnc(C)o3)cc21 [Compound 44, 2-(Diethylamino)-1-(3-((5-methyl-1,3,4-oxadiazol-2-yl)amino)-10,11-dihydro-5H-dibenzo[b,f]azepin-5-yl)ethan-1-one] | about 3.4 fold | – | –
CCOC(=O)Nc1ccc2c(c1)N(C(=O)COC(C)(C)C)c1ccccc1CC2 [Compound 35, Ethyl (5-(2-(tert-butoxy)acetyl)-10,11-dihydro-5H-dibenzo[b,f]azepin-3-yl)carbamate] | – | 9.7 fold | –
Cc1cccc(CN2CCN(C(c3ccccc3)c3ccc(Cl)cc3)CC2)c1 (stereo not shown) [Meclizine] | – | – | hCAR inverse agonist or antagonist effect (hCAR): failed to act as an effective hCAR inverse agonist or antagonist
CCOC(=O)Nc1ccc2c(c1)N(C(=O)CN1C(=O)C=CC1=O)c1ccccc1CC2 [Compound 28, Ethyl (5-(2-(2,5-dioxo-2,5-dihydro-1H-pyrrol-1-yl)acetyl)-10,11-dihydro-5H-dibenzo[b,f]azepin-3-yl)carbamate] | – | – | fold IC50 relative to chemical 24 (GST-hCAR-LBD; comparator 24, less active): 25 fold
CC(C)OC(=O)Nc1ccc2c(c1)N(C(=O)CCN(C)C)c1ccccc1CC2 [Compound 20] | – | – | fold increase in potency compared to chemical 18 (GST-hCAR-LBD; comparator 18): about 3 fold
CCOC(=O)Nc1ccc2c(c1)N(C(=O)CNC(C)(C)C)c1ccccc1CC2 [Compound 16] | 5 fold | – | –
O=C(Nc1ccc2c(c1)N(C(=O)Cn1cccc1)c1ccccc1CC2)OC1CCCCC1 [Compound 72, Cyclohexyl (5-(2-(1H-pyrrol-1-yl)acetyl)-10,11-dihydro-5H-dibenzo[b,f]azepin-3-yl)carbamate] | – | about 59 fold | –
CCOC(=O)Nc1ccc2c(c1)N(C(=O)CN1CCCC1)c1ccccc1CC2 [Compound 24, Ethyl (5-(2-(pyrrolidin-1-yl)acetyl)-10,11-dihydro-5H-dibenzo[b,f]azepin-3-yl)carbamate] | more than 2 fold | – | –
CCOC(=O)Nc1ccc2c(c1)N(C(=O)CN1C(C)(C)CCCC1(C)C)c1ccccc1CC2 [Compound 26, Ethyl (5-(2-(2,2,6,6-tetramethylpiperidin-1-yl)acetyl)-10,11-dihydro-5H-dibenzo[b,f]azepin-3-yl)carbamate] | – | – | fold IC50 relative to chemical 25 (GST-hCAR-LBD; comparator 25): over 6 fold
CCOC(=O)Nc1ccc2c(c1)N(C(=O)Cn1ccnc1)c1ccccc1CC2 [Compound 30, Ethyl (5-(2-(1H-imidazol-1-yl)acetyl)-10,11-dihydro-5H-dibenzo[b,f]azepin-3-yl)carbamate] | – | – | fold IC50 relative to chemical 29 (GST-hCAR-LBD; comparator 29, loss of activity): 186 fold
CCOC(=O)Nc1ccc2c(c1)N(C(=O)Cn1cccc1)c1ccccc1CC2 [Compound 29, Ethyl (5-(2-(1H-pyrrol-1-yl)acetyl)-10,11-dihydro-5H-dibenzo[b,f]azepin-3-yl)carbamate] | – | 19 fold | fold more potent than chemical 24 (GST-hCAR-LBD; comparator 24): 43 fold
CC(C)OC(=O)Nc1ccc2c(c1)N(C(=O)Cn1cccc1)c1ccccc1CC2 [Compound 56, Isopropyl (5-(2-(1H-pyrrol-1-yl)acetyl)-10,11-dihydro-5H-dibenzo[b,f]azepin-3-yl)carbamate] | – | 32.8 fold | –
C=CCN=C=S [AITC, allyl isothiocyanate] | – | – | inhibitory effect against PXR (PXR [1]): inhibitory effects against both CAR and PXR; inhibitory effect against CAR (CAR): inhibitory effects against both CAR and PXR
CCOC(=O)Nc1ccc2c(c1)N(C(=O)CN(C(C)C)C(C)C)c1ccccc1CC2 [Compound 23, Ethyl (5-(diisopropylglycyl)-10,11-dihydro-5H-dibenzo[b,f]azepin-3-yl)carbamate] | more than 4 fold | – | –
CCOC(=O)Nc1ccc2c(c1)N(C(=O)CN1CCN(C)CC1)c1ccccc1CC2 [Compound 13] | 56 fold | – | –
CCOC(=O)Nc1ccc2c(c1)N(C(=O)CNC(C)(C)CC)c1ccccc1CC2 [Compound 32, Ethyl (5-(tert-pentylglycyl)-10,11-dihydro-5H-dibenzo[b,f]azepin-3-yl)carbamate] | 3 fold | – | –
CCOC(=O)Nc1ccc2c(c1)N(C(=O)CN(CC)CC)c1ccccc1CC2 [Compound 11, ethyl (5-(diethylglycyl)-10,11-dihydro-5H-dibenzo[b,f]azepin-3-yl)carbamate] | – | – | PXR activation (PXR [2]): does not activate PXR
CCOC(=O)Nc1ccc2c(c1)N(C(=O)CN1CCOCC1)c1ccccc1CC2 [Compound 12] | – | about 3 fold | –
CCOC(=O)Nc1ccc2c(c1)N(C(=O)CCN(CC)CC)c1ccccc1CC2 [Compound 33, Ethyl (5-(3-(diethylamino)propanoyl)-10,11-dihydro-5H-dibenzo[b,f]azepin-3-yl)carbamate] | 3.5 fold | – | –
CCCN(CCC)CC(=O)N1c2ccccc2CCc2ccc(NC(=O)OCC)cc21 [Compound 22, Ethyl (5-(dipropylglycyl)-10,11-dihydro-5H-dibenzo[b,f]azepin-3-yl)carbamate] | – | 3 fold | –
